ChEMBL document CHEMBL1201862, “PubChem BioAssay data set” (2004)
Activity calls are given as the source filed them. Unless noted, the calls are words filed in the database; no cut-off is given here.

Legend:
[1] = system: HeLa; experiment: PMA/Ionomycin induced NF-kB luciferase in HeLa cells. [Related pubchem assays (depositor defined):AID1266, AID1269, AID1270, AID1271, AID1280, AID1281, AID1282, AID1283, AID1287, AID1289, AID1290, AID1291, AID1292, AID1293, AID1294, AID1295, AID1299, AID1302, AID1364, AID1365, AID1366, AID1367, AID1368, AID1369, AID1370, AID1371, AID1372, AID1373 …; format: functional, cell-based; details: Homo sapiens
[2] = target: Inhibitor of nuclear factor kappa-B kinase subunit beta (Homo sapiens, UniProt O14920); experiment: In Vitro Kinase Assay Using Purified Enzyme IKK-beta. [Related pubchem assays: 1266, 1299, 1269, 1373, 1292, 1290, 1302, 1371, 1283, 1270, 1295, 1271, 1375, 1294, 1287, 1374, 1281, 1293, 1291, 1289, 1280, 465, 1368, 1364, 1372, 1365, 1369, 1370, 1367, 1366 ]
Inhibitor of nuclear factor kappa-B kinase subunit beta, sequence (O14920 whole entry): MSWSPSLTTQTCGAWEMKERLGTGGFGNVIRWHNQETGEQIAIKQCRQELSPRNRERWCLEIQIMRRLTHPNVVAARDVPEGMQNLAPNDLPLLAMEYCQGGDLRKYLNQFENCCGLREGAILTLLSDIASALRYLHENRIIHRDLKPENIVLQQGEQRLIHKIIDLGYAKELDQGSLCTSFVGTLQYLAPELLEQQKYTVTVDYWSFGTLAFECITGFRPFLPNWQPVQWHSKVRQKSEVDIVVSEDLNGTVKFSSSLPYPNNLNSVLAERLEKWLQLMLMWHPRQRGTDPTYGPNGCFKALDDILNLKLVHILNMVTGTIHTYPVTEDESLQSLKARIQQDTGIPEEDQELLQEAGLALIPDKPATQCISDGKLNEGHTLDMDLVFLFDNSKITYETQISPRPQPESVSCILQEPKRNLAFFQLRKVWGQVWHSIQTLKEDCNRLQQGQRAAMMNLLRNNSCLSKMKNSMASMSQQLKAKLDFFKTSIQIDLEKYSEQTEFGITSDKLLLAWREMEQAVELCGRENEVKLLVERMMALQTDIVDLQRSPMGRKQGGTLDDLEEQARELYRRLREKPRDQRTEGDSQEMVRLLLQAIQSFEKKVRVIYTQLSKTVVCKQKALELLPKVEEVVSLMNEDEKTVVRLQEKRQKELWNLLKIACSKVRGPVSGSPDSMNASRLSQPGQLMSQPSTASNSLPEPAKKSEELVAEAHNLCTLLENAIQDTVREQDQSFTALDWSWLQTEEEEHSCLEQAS

[3] = system: HEK293; experiment: cells; details: Homo sapiens
[4] = system: MCF7; experiment: Cytotoxicity assay in MCF7 cells. [Related pubchem assays (depositor defined):AID1266, AID1269, AID1270, AID1271, AID1280, AID1281, AID1282, AID1283, AID1287, AID1289, AID1290, AID1291, AID1292, AID1293, AID1294, AID1295, AID1299, AID1302, AID1364, AID1365, AID1366, AID1367, AID1368, AID1369, AID1370, AID1371, AID1372, AID1374, AID1375, AID1384 …; format: functional, cell-based; details: Homo sapiens
[5] = system: HEK293; experiment: cells; details: Homo sapiens; remark: listed apart in the source
[6] = system: HEK293; experiment: cells; details: Homo sapiens; remark: listed apart in the source
[7] = system: HEK293; experiment: cells; details: Homo sapiens; remark: listed apart in the source
[8] = Anti-IgM induced B cell proliferation of mouse primary lymphocytes. [Related pubchem assays: 1266, 1299, 1269, 1373, 1292, 1290, 1302, 1371, 1283, 1270, 1295, 1271, 1375, 1294, 1287, 1374, 1281, 1293, 1291, 1289, 1280, 465, 1368, 1364, 1282, 1372, 1369, 1370, 1367, 1366 ]; format: functional, cell-based
[9] = Anti-cd3/cd28 induced T cell proliferation of mouse primary lymphocytes. [Related pubchem assays: 1299, 1270, 1295, 1375, 1287, 1281, 1293, 1291, 1289, 1280, 465, 1282, 1372, 1365, 1370, 1367, 1366, 1266, 1269, 1373, 1292, 1290, 1302, 1371, 1283, 1271, 1294, 1374, 1368, 1369 ]; format: functional, cell-based
[10] = system: MCF7; experiment: GM-Tri-DAP induced IL-8 production in MCF-7/NOD1 cells. [Related pubchem assays (depositor defined):AID1266, AID1269, AID1270, AID1271, AID1280, AID1281, AID1282, AID1283, AID1287, AID1289, AID1290, AID1291, AID1292, AID1293, AID1294, AID1295, AID1299, AID1302, AID1364, AID1365, AID1366, AID1367, AID1368, AID1369, AID1371, AID1372, AID1373 …; format: functional, cell-based; details: Homo sapiens
[11] = system: HEK293; experiment: PMA/Ionomycin induced NF-kB luciferase assay in 293- NF-kB-Luc stable cells. [Related pubchem assays: 1299, 1270, 1295, 1375, 1287, 1281, 1293, 1291, 1289, 1280, 465, 1364, 1282, 1372, 1365, 1370, 1367, 1366, 1269, 1373, 1292, 1290, 1302, 1371, 1283, 1271, 1294, 1374, 1368, 1369 ]; format: functional, cell-based; details: Homo sapiens
[12] = system: THP-1; experiment: LPS induced NF-kB in THP.1 cells. [Related pubchem assays (depositor defined):AID1266, AID1269, AID1270, AID1271, AID1280, AID1281, AID1282, AID1283, AID1287, AID1289, AID1290, AID1291, AID1292, AID1293, AID1294, AID1295, AID1299, AID1302, AID1364, AID1365, AID1366, AID1367, AID1368, AID1370, AID1371, AID1372, AID1373, AID1374, AID1375, AID1384 …; format: functional, cell-based; details: Homo sapiens
[13] = system: Jurkat; experiment: Cytotoxicity assay in Jurkat T cells. [Related pubchem assays (depositor defined):AID1266, AID1269, AID1270, AID1271, AID1280, AID1281, AID1282, AID1283, AID1287, AID1289, AID1290, AID1291, AID1292, AID1293, AID1294, AID1295, AID1299, AID1302, AID1364, AID1365, AID1366, AID1368, AID1369, AID1370, AID1371, AID1372, AID1373, AID1374, AID1375 …; format: functional, cell-based; details: Homo sapiens
[14] = system: HEK293; experiment: cells; details: Homo sapiens; remark: listed apart in the source
[15] = system: HEK293; experiment: Cytotoxicity assay in HEK293 cells. [Related pubchem assays (depositor defined):AID1266, AID1269, AID1270, AID1271, AID1280, AID1281, AID1282, AID1283, AID1287, AID1289, AID1290, AID1291, AID1292, AID1293, AID1294, AID1295, AID1299, AID1302, AID1364, AID1365, AID1366, AID1367, AID1369, AID1370, AID1371, AID1372, AID1373, AID1374, AID1375, AID1384 …; format: functional, cell-based; details: Homo sapiens
[16] = system: Jurkat; experiment: IL-2 Production Assay in Jurkat T-cells Stimulated with anti-CD3/anti-CD28 antibodies. [Related pubchem assays: 1299, 1270, 1295, 1375, 1287, 1281, 1293, 1291, 1289, 1280, 465, 1364, 1282, 1372, 1365, 1370, 1367, 1366, 1266, 1269, 1373, 1292, 1290, 1302, 1371, 1283, 1294, 1374, 1368, 1369 ]; format: functional, cell-based; details: Homo sapiens
[17] = target: Luciferin 4-monooxygenase (Photinus pyralis, UniProt P08659); experiment: In vitro luciferase assay using purified luciferase. [Related pubchem assays: 1299, 1270, 1295, 1375, 1287, 1281, 1293, 1291, 1289, 1280, 465, 1364, 1282, 1372, 1365, 1370, 1367, 1366, 1266, 1373, 1292, 1290, 1302, 1371, 1283, 1271, 1294, 1374, 1368, 1369 ]
Luciferin 4-monooxygenase, sequence (P08659 whole entry): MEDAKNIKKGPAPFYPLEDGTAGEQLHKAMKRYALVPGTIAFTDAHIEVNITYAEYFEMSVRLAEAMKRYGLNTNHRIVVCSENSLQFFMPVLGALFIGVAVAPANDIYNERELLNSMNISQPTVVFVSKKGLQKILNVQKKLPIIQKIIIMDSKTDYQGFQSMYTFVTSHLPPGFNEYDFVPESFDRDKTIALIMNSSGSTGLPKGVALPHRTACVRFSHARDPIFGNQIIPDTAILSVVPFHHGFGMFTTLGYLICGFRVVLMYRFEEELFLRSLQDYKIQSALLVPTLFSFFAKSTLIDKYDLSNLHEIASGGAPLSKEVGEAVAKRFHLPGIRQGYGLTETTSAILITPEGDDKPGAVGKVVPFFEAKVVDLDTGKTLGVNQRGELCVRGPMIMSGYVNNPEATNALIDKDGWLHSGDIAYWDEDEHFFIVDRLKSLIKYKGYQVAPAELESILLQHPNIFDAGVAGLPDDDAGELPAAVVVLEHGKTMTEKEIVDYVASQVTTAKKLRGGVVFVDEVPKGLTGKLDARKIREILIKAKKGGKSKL

[18] = system: MCF7; experiment: PMA/Ionomycin induced NF-kB luciferase in MCF7 cells. [Related pubchem assays (depositor defined):AID1266, AID1269, AID1270, AID1271, AID1280, AID1281, AID1282, AID1283, AID1287, AID1289, AID1290, AID1291, AID1292, AID1293, AID1294, AID1295, AID1299, AID1302, AID1364, AID1365, AID1367, AID1368, AID1369, AID1370, AID1371, AID1372, AID1373, AID1374 …; format: functional, cell-based; details: Homo sapiens
[19] = target: Protein kinase C beta type (Homo sapiens, UniProt P05771); experiment: In Vitro Kinase Assay Using Purified Enzyme PKC-beta. [Related pubchem assays: 1299, 1270, 1295, 1375, 1287, 1281, 1293, 1291, 1289, 465, 1364, 1282, 1372, 1365, 1370, 1367, 1366, 1266, 1269, 1373, 1292, 1290, 1302, 1371, 1283, 1271, 1294, 1374, 1368, 1369 ]
Protein kinase C beta type, sequence (P05771 whole entry): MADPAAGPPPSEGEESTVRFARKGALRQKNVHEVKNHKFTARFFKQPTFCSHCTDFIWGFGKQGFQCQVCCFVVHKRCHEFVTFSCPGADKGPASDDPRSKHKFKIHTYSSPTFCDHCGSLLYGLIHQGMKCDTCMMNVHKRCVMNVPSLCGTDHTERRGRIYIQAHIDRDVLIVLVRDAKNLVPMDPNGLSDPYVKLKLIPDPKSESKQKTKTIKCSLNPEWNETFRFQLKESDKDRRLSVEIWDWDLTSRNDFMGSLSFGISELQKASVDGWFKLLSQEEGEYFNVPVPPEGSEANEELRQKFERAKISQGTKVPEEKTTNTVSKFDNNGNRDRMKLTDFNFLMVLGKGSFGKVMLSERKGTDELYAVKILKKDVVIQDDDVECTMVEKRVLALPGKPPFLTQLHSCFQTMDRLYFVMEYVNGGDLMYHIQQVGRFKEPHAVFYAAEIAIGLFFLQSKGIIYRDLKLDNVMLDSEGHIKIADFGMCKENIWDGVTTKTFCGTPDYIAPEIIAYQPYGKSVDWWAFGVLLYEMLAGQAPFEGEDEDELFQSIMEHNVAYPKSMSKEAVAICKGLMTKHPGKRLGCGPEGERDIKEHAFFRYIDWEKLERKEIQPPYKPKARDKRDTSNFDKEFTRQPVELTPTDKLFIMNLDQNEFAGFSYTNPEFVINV

[20] = system: HeLa; experiment: Cytotoxicity Assay in HeLa Cells. [Related pubchem assays: 1299, 1270, 1295, 1375, 1287, 1281, 1293, 1291, 1289, 1280, 465, 1364, 1282, 1372, 1365, 1370, 1367, 1366, 1266, 1269, 1373, 1292, 1290, 1371, 1283, 1271, 1294, 1374, 1368, 1369 ]; format: functional, cell-based; details: Homo sapiens
[21] = system: HEK293; experiment: cells; details: Homo sapiens; remark: listed apart in the source
[22] = system: HEK293; experiment: cells; details: Homo sapiens; remark: listed apart in the source
[23] = target: Protein kinase C theta type (Homo sapiens, UniProt Q04759); experiment: In Vitro Kinase Assay Using Purified Enzyme PKC-theta. [Related pubchem assays: 1299, 1270, 1295, 1375, 1287, 1281, 1293, 1291, 1289, 1280, 465, 1364, 1282, 1372, 1365, 1370, 1367, 1366, 1266, 1269, 1373, 1292, 1290, 1302, 1371, 1271, 1294, 1374, 1368, 1369 ]
Protein kinase C theta type, sequence (Q04759 whole entry): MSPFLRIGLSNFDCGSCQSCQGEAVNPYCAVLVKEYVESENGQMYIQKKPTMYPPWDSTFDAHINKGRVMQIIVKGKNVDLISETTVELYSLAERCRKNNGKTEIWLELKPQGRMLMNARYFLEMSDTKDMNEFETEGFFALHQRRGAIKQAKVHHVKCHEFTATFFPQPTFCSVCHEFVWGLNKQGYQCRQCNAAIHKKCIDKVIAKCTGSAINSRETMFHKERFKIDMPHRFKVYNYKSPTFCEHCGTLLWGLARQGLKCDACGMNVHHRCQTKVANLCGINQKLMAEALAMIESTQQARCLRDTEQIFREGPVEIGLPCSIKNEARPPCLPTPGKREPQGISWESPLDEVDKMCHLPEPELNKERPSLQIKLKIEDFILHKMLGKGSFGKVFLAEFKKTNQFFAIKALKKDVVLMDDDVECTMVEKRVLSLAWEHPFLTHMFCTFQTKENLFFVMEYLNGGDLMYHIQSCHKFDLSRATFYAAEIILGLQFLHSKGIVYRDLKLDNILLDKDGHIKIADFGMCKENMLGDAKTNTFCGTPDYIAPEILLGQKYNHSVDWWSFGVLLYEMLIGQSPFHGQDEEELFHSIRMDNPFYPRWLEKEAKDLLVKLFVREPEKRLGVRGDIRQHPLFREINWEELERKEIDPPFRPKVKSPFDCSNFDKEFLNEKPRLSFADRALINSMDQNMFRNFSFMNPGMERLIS

[24] = system: HEK293; experiment: cells; details: Homo sapiens; remark: listed apart in the source
[25] = system: HEK293; experiment: cells; details: Homo sapiens; remark: listed apart in the source
[26] = system: HEK293; experiment: cells; details: Homo sapiens; remark: listed apart in the source
[27] = system: HEK293; experiment: PMA/Ionomycin-induced IL-8 production in HEK293- NF-kB-Luc stable cells. [Related pubchem assays: 1299, 1295, 1375, 1287, 1281, 1293, 1291, 1289, 1280, 465, 1364, 1282, 1372, 1365, 1367, 1366, 1266, 1269, 1373, 1292, 1290, 1302, 1371, 1283, 1271, 1294, 1374, 1368, 1369 ]; format: functional, cell-based; details: Homo sapiens
[28] = system: HEK293; experiment: TNF Induced NF-kB Luciferase in 293-NF-kB-Luc Stable Cells. [Related pubchem assays: 1266, 1299, 1269, 1373, 1292, 1290, 1302, 1371, 1283, 1270, 1295, 1271, 1375, 1294, 1374, 1281, 1293, 1291, 1289, 1280, 465, 1368, 1364, 1282, 1372, 1365, 1369, 1370, 1367, 1366 ]; format: functional, cell-based; details: Homo sapiens
[29] = system: PPC-1; experiment: PMA/Ionomycin induced NF-kB luciferase in PPC-1 cells. [Related pubchem assays (depositor defined):AID1266, AID1269, AID1270, AID1271, AID1280, AID1281, AID1282, AID1283, AID1287, AID1289, AID1290, AID1291, AID1292, AID1293, AID1294, AID1295, AID1299, AID1302, AID1364, AID1365, AID1366, AID1367, AID1368, AID1369, AID1370, AID1371, AID1372, AID1373 …; format: functional, cell-based; details: Homo sapiens

For `Cc1cc2nc(NCCCO)n(CC(=O)c3cc(C(C)(C)C)c(O)c(C(C)(C)C)c3)c2cc1C`, the EC50 [1] was > 4 µM (inactive), the EC50 [2] was > 4 µM (not active) and the EC50 [3] was > 4 µM (inactive). For the same compound, the EC50 [4] was > 8 µM (inactive), the EC50 [5] was > 4 µM (not active) and the EC50 [6] was > 4 µM (not active). For the same compound, the EC50 [7] was > 4 µM (not active), the EC50 [8] was 2.81 µM (active) and the EC50 [9] was > 4 µM (not active). For the same compound, the EC50 [10] was > 8 µM (inactive), the EC50 [11] was 0.129 µM (active) and the EC50 [12] was 5.74 µM (inactive). The EC50 [13] was > 8 µM (inactive), the EC50 [14] was > 4 µM (not active) and the EC50 [15] was > 8 µM (inactive). The EC50 [16] was 2.57 µM (active), the EC50 [17] was > 8 µM (not active) and the EC50 [18] was > 4 µM (inactive). For the same compound, the EC50 [19] was > 4 µM (not active), the EC50 [20] was > 4 µM (not active) and the EC50 [21] was > 4 µM (not active). For the same compound, the EC50 [22] was > 4 µM (not active), the EC50 [23] was > 4 µM (not active) and the EC50 [24] was > 4 µM (inactive). For the same compound, the EC50 [25] was 0.23 µM (active), the EC50 [26] was 0.672 µM (active) and the EC50 [27] was 0.0604 µM (active). The EC50 [28] was > 8 µM (not active) and the EC50 [29] was > 4 µM (inactive).
